Series [1] concerns taxol resistant CCRF-CEM derivative cells. Description: Cell death in taxol/vinblastine resistance panel. The series is classed as cell-based. The settings on record: Homo sapiens. The protocol: (§1) In certain embodiments, the sensitivity to erastin, can be tested in cell lines that are resistant to taxol and vinblastine. The sensitivity of CCRF-CEM parental, and taxol and vinblastine resistant derivative cells to erastin was tested. […] Erastin analogues can be tested to ensure their effectiveness in inducing cell death in tumor cell line which are resistant to taxol or vinblastin, or other ant-tumor agents.

In a further series the test system is CCRF-CEM parental cells. Description: Cell death in taxol/vinblastine resistance panel. The class given is cell-based. The settings on record: Homo sapiens. The protocol:
as §1

The next series deals with cytochrome c. Kind of series: Cytochrome c release from mitochondria. The series is classed as cell-based, human. The settings on record: BJ-TERT/LT/ST/RAS^V12 cells; staurosporine 1 μM or erastin 20 μg/mL, 6 h. The protocol: BJ-TERT/LT/ST/RAS^V12 cells were seeded in polystyrene 100×20 mm dishes in 10 ml media. After overnight incubation at 37° C. with 5% CO2, the cells were treated with nothing (NT), staurosporine (ST, 1 μM) or erastin (20 μg/mL) for 6 h, washed with 10 mL ice-cold PBS and lysed by passage through a 25-gauge needle (five strokes). Cell lysates were centrifuged at 1850 rpm for 5 min at 4° C. to remove the nuclear fraction. Mitochondria were removed from the soluble cytosolic fraction by pelleting at 10,000 rpm. Supernatant and mitochondrial pellets were solubilized in SDS-PAGE loading buffer and analyzed by western blot using anti-cytochrome c and pan-VDAC antibodies and IR-dye-linked secondary antibodies. VDACs are mitochondrial proteins, so their absence in the cytosolic lane indicates effective separation of cytosol (C) from mitochondria (M). Fluorescence was detected on a LI-COR Odyssey infrared scanner.
For the cytochrome c release assay, cells were washed with 10 mL of ice-cold PBS, suspended in 120 μL of buffer (300 mM sucrose, 0.1% BSA, 10 mM HEPES, pH 7.5, 10 mM KCl, 1.5 mM MgCl2, 1 mM EGTA, 1 mM EDTA, 1 mM dithiothreitol, 2 mM phenylmethanesulfonyl fluoride and 1 protease inhibitor tablet (Roche)) and incubated on ice for 15 min. […] Supernatant and mitochondrial pellets were solubilized in SDS-PAGE loading buffer and analyzed by western blotting.

The nature of series [2]: Stability in mouse liver microsomes. The settings on record: after 1 hr. The series is classed as in vitro ADME. The protocol:
The stability of erastin in mouse and human liver microsomes and in mouse and human plasma was assessed. In both human and mouse liver microsomes, after 1 hr, ˜30% of erastin was converted to its primary metabolite (the O-de-ethylated product). In both human and mouse plasma, only ˜10% of erastin was lost after five hours. Thus, erastin has sufficient metabolic and plasma stability to be tested in vivo in mice.
Background: Liver microsomes are vesicles of endoplasmic reticulum, rich in cytochrome P450 enzymes.

Another series concerns BJ-TERT/LT/ST cells. Description: Alamar Blue viability assay. The class given is cell-based. The settings on record: Homo sapiens; BJ-TERT/LT/ST (lacking HRAS^V12). The method, then:
(§2) Alamar Blue metabolism: 10% Alamar Blue was added to assay plates, which were then incubated for an additional 16 hours. Red fluorescence, resulting from reduction of Alamar Blue, was detected on a Victor3 platereader (ex: 530, em: 590).
(§3) Table 2. Activity of RAS-selective lethal compound erastin in tumor cell lines. IC50 values (ng/mL) are shown using the Alamar Blue viability assay. BJ engineered tumor cells express TERT, LT, ST, and oncogenic RAS. Isogenic RAS^V12 lacking cells are identical but lack HRAS^V12. BJ-DRD cells are derived from BJ cells and contain TERT, oncogenic RAS, a truncated from of p53 (p53DD) that disrupts the tetramerization of endogenous p53, a CDK4(R24C) mutant resistant to inhibition by p16INK4A and p151NK4B (the major negative regulators of CDK4) and cyclin D1. These latter protein substitute for LT. HCT-116, A549, Calu-1, and MIA PaCa-2 are tumor cells derived from cancers (colon, lung, lung and pancreatic, respectively) known to have activating mutations in RAS.

The subject of the next series is Calu-1 cells. Description: Alamar Blue viability assay. The series is classed as cell-based. The settings on record: Homo sapiens; Calu-1 (+KRAS). The protocol: as §2, §3
In another series the test system is A549 cells. Description: Alamar Blue viability assay. The class given is cell-based. The settings on record: Homo sapiens; A549 (+KRAS). The protocol:
as §2, §3
For orientation: The colour change of resazurin is a common sign of viable cells or microbes.

The next series has as its system HCT-116 cells. Description: Alamar Blue viability assay. The series is classed as cell-based. The settings on record: Homo sapiens; HCT-116 (+KRAS). The protocol: as §2, §3
The subject of the next series is MIA PaCa-2 cells. Description: Alamar Blue viability assay. The class given is cell-based. The settings on record: Homo sapiens; MIA PaCa-2 (+KRAS). The method, then: as §2, §3

One may read the IC50 as the concentration at which inhibition is half-maximal.

≈ marks a conversion by molar mass, not a printed value.

Take `CCOc1ccccc1-n1c(C(C)N2CCN(C(=O)COc3ccc(Cl)cc3)CC2)nc2ccccc2c1=O` (stereo not drawn) [erastin, 2-(1-{4-[2-(4-Chloro-phenoxy)-acetyl]-piperazin-1-yl}-ethyl)-3-(2-ethoxy-phenyl)-3H-quinazolin-4-one]: the IC50 is 7 µM in series [1]; 11 µM in the series with CCRF-CEM parental cells; greater than 20 µg/mL with BJ-TERT/LT/ST cells; 1 µg/mL (≈ 1.83 µM) in the series on Calu-1 cells; greater than 20 µg/mL in the series on A549 cells; greater than 20 µg/mL in the series on HCT-116 cells. This molecule returned an IC50 in the series on MIA PaCa-2 cells of 5 µg/mL (≈ 9.14 µM). Moreover, the “Cytochrome c release from mitochondria” value in the series with cytochrome c is reported as “does not induce cytochrome c release”. For the same molecule, in [2], the “converted to primary metabolite (O-de-ethylated product)” value is recorded as roughly 30%.
